Where two headings read alike, the source gives them in different places.
Tests used:
[1] = CD1-nude, mouse
[2] = humans; cited from earlier work
[3] = tested on: medulloblastoma/primitive neuroectodermal tumor (cell line JRMB-6); conditions: single agent, 130 mg/kg IP daily for five consecutive days; cited from earlier work
[4] = female, CD1-nude, mouse, in vivo
[5] = in vivo; conditions: CD1-nude, mouse, Kp,uu (unbound ECF to plasma partition coefficient), mean (SD)
[6] = in vitro; conditions: CD1, mouse, plasma
[7] = in vivo; conditions: female, CD1-nude, mouse, ip, 130 mg/kg

O=P1(N(CCCl)CCCl)NCCCO1 (stereo not drawn) [cyclophosphamide]
AUCECF,0-5h (unbound brain ECF exposure), mean (SD) ([1]; in vivo): 6.3 (1.3) μM·h | AUCECF,0-5h (unbound tumor ECF exposure), mean (SD) ([1]; in vivo): 4.0 (1.4) μM·h | AUCECF,0-5h (unbound tumor or brain ECF exposure), mean (SD) ([1]; in vivo): 5.2 (1.8) μM·h | Influx clearance CLin, estimate (RSE%) ([1]; in vivo): 4.3·10^−4 (16) L/h/kg | Inter-individual variability, influx clearance η-CLin, estimate (RSE%) ([1]; in vivo): 0.31 (51) | Proportional residual variability εprop, estimate (RSE%) ([1]; in vivo): 0.45 (12) | Efflux clearance CLef, estimate (RSE%) ([1]; not told): 2.4·10^−3 (7.0) L/h/kg | Inter-individual variability, efflux clearance η-CLef, estimate (RSE%) ([1]; not told): 0.23 (22) | FU (fraction unbound) [2]: 7-17% | Response rate [3]: 85% | Survival versus saline controls [3]: statistically improved survival | Central clearance CL, estimate (RSE%) [4]: 4.4 (3.7) L/h/kg | Central volume V, estimate (RSE%) [4]: 0.65 (5.0) L/kg | Inter-individual variability, central clearance η-CL, estimate (RSE%) [4]: 0.11 (17) | Peripheral clearance Q, estimate (RSE%) [4]: 0.18 (4.3) L/h/kg | Peripheral volume Vp, estimate (RSE%) [4]: 0.062 (2.6) L/kg | Proportional residual variability εprop, estimate (RSE%) [4]: 0.24 (11) | Mean observed maximum concentrations ([4]; ip, 130 mg/kg): 352.9 µM | Kp uu [5]: 0.22 | fraction unbound [6]: 0.26 | AUC [7]: 113 µM·h
